Source: patent publication US20100015141A1, “4-PHENOXY-6-ARYL-1H-PYRAZOLO[3,4-D]PYRIMIDINE AND N-ARYL-6-ARYL-1H-PYRAZOLO[3,4-D]PYRIMIDIN-4-AMINE COMPOUNDS, THEIR USE AS MTOR KINASE AND PI3 KINASE INHIBITORS, AND THEIR SYNTHESES” (Wyeth, priority 2008, published 2010)
Where two headings read alike, the source gives them in different places.

Experiments:
PI3K-δ = PI3K-δ (Homo sapiens, UniProt O00329); assay: PI3K fluorescence polarization assay (PI3K-δ); assay type: biochemical
Method: (§1) The reaction buffer was 20 mM HEPES pH7.5, 2 mM MgCl2, 0.05% CHAPS, and 0.01% βME (added fresh). The substrate solution was 40 μM PIP2 (diC8, Echelon, Salt Lake City Utah cat #P-4508, 1 mM in water) and 50 μM ATP in the reaction buffer. Nunc 384-well black polypropylene fluorescent plates were used for PI3K assays. The assay is run by putting 9.5 μl of freshly diluted enzyme in the reaction buffer per well, adding 0.5 μl of diluted drug or DMSO, and mixing. Then 10 μl of the substrate solution is added to each well to start the reaction. A final concentration of 20 μM PIP2 and 25 μM ATP in the reaction was used. Reactions were allowed to proceed for 30-60 minutes at room temperature. After 30-60 minutes, 20 μl of a solution of 10 nM TAMRA detector (Red detector probe-Echelon) and 2.5 uM of GST-murineGRP (1.5 mg/ml in 17% glycerol) was added per well to stop the reaction. The resulting solution was mixed well and allowed to stand for 90-110 minutes before reading plate. Assay Plates were read on Perkin-Elmer Envision plate readers with appropriate filters for Tamra [BODIPY-TMRI(1,3,4,5)P4]. Data obtained were used to calculate enzymatic activity and enzyme inhibition by inhibitor compounds. It is important to keep Red probe solutions dark. This procedure is adapted from Echelon Biosciences Inc procedure for their PI3-Kinase fluorescence polarization activity Assay kit Product number K-1100.

mTOR [1] = biological target: T1, mTOR (Homo sapiens, UniProt P42345); assay: mTOR enzyme assay (DELFIA, His6-S6K phosphorylation); assay type: biochemical; design: FLAG; settings: 100 μM ATP, 1.25 μM His6-S6K
PI3K-γ = PI3K-γ (Homo sapiens, UniProt P48736); assay: PI3K-gamma fluorescence polarization assay; assay type: biochemical; settings: 20 μM PIP2, 25 μM ATP
Method in brief: (§2)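 Buffer: 20 mM HEPES pH7.5, 2 mM MgCl2, 0.05% CHAPS, 0.01% βME. Enzyme with compound was reacted with final 20 μM diC8 PIP2 and 25 μM ATP for 30-60 minutes at room temperature. The stop/detection mix (10 nM TAMRA probe, 2.5 uM GST-murine GRP as added) was read by fluorescence polarization after 90-110 minutes.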

PI3K-β = PI3K-β (Homo sapiens, UniProt P42338); assay: PI3K fluorescence polarization assay (PI3K-β); assay type: biochemical
Method: as §1

PI3K-α = PI3K-α (Homo sapiens, UniProt P42336); assay: PI3K-alpha fluorescence polarization assay; assay type: biochemical; settings: 20 μM PIP2, 25 μM ATP
Method in brief: as §2

human tumor xenografts = settings: cited from earlier work
[2] = test system: acute lymphoblastic leukemia; settings: in vivo; cited from earlier work
mTOR [3] = biological target: T1, mTOR; settings: read-out: mTOR IC50; mTOR complexes (PI103) / mTOR enzymes (ZSTK474); cited from earlier work

PI3K-α, sequence (P42336 whole entry, species assumed): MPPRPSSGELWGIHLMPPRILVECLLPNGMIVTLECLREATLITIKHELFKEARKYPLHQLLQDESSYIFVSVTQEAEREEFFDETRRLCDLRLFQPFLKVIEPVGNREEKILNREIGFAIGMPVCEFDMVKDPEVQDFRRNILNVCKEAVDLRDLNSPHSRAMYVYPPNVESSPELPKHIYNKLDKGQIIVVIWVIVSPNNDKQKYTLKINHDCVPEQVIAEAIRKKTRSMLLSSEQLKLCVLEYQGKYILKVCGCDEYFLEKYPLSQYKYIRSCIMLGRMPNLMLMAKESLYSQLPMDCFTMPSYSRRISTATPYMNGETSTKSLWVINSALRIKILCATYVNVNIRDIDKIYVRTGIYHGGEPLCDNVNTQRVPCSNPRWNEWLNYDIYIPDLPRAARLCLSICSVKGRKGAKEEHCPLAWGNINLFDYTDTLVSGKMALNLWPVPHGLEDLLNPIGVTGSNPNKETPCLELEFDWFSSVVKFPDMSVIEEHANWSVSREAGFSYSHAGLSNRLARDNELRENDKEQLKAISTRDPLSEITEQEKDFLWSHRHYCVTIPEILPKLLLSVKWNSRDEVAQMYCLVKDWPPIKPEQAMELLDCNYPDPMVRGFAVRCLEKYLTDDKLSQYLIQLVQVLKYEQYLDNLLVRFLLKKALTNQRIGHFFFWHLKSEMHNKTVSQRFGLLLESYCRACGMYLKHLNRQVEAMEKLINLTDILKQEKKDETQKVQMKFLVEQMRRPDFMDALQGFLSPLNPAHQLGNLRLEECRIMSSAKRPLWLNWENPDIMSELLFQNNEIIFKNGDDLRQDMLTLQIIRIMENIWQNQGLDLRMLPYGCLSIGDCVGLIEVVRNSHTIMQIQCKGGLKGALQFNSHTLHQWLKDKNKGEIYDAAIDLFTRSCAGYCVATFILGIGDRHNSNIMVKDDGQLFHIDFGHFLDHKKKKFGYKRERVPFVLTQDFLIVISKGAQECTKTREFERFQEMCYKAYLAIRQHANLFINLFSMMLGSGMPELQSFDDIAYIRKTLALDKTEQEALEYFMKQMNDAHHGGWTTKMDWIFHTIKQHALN
PI3K-α, sequence (P27986 whole entry partner, species assumed): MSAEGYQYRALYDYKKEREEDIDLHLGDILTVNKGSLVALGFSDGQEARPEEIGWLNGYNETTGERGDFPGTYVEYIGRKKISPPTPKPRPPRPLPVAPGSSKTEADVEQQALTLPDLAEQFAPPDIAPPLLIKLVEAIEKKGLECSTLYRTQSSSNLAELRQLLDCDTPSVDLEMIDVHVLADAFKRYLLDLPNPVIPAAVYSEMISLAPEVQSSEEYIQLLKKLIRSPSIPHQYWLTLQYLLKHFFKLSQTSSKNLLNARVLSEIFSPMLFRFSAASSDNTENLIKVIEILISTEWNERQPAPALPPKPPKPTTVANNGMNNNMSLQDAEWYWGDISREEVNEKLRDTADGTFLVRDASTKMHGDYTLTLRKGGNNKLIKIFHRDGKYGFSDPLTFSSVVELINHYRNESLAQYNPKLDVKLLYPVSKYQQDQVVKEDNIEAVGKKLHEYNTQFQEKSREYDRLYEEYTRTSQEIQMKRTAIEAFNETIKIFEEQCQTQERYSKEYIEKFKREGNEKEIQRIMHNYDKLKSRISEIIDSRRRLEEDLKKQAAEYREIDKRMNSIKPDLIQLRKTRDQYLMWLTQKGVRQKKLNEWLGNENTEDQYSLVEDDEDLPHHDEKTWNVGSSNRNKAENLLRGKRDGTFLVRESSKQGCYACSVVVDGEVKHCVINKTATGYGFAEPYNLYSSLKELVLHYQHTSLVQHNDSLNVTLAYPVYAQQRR
PI3K-δ, sequence (O00329 whole entry, species assumed): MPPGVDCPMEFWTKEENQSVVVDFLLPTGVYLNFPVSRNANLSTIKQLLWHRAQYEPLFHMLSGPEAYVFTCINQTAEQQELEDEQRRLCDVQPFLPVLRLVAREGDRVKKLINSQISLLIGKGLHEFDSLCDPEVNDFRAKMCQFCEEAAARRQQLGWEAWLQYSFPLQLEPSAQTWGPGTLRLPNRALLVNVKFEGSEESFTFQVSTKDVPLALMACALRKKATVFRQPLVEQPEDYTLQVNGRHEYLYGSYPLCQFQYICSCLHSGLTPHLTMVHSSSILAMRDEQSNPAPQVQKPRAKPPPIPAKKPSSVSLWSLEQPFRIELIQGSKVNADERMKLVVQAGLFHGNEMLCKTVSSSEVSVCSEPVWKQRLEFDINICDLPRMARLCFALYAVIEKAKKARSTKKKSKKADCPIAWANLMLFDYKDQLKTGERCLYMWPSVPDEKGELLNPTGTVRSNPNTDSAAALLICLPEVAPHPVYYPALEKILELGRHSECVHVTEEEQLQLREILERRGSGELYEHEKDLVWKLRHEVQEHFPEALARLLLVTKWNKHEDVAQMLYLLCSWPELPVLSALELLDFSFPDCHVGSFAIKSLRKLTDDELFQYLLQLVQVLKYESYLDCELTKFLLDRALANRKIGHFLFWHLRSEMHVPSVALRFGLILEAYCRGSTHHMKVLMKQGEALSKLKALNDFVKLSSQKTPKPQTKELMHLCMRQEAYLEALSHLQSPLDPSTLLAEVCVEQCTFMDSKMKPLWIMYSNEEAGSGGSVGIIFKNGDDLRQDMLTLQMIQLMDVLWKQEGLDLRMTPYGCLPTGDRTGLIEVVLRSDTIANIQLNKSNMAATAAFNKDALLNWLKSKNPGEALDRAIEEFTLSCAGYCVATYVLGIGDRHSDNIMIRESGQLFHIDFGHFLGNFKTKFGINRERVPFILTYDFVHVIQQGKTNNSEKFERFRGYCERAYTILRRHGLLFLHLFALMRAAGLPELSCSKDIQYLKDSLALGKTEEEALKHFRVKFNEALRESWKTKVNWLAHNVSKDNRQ
PI3K-δ, sequence (P27986 whole entry partner, species assumed): as the sequence (P27986 whole entry partner, species assumed) above
PI3K-β, sequence (P42338 whole entry, species assumed): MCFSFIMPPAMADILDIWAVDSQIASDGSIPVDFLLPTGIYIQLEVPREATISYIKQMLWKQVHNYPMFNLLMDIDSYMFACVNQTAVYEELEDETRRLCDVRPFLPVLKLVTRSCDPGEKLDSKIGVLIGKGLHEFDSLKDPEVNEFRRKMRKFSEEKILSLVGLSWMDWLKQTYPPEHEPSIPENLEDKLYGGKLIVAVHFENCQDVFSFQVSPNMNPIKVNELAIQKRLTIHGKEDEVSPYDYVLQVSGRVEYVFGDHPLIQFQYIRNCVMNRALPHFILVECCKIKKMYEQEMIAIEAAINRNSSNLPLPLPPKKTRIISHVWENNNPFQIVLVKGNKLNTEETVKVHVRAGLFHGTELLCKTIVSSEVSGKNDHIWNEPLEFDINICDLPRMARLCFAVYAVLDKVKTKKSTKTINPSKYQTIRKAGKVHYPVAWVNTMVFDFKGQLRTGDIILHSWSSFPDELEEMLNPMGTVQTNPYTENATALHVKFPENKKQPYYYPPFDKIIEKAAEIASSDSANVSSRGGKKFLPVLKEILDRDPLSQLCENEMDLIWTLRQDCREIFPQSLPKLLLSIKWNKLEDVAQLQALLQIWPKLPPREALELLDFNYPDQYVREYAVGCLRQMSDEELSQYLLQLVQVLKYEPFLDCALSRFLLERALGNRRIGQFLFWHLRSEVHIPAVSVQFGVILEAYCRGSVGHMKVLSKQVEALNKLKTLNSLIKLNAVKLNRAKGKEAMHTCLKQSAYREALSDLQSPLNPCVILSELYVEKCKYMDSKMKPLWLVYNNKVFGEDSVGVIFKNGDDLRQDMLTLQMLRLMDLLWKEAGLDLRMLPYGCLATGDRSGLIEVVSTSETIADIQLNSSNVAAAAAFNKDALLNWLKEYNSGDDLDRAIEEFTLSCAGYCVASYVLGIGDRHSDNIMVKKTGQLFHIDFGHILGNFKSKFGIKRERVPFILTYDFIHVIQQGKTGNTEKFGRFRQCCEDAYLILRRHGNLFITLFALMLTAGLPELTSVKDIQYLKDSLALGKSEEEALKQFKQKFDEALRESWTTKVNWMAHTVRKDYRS
PI3K-β, sequence (P27986 whole entry partner, species assumed): as the sequence (P27986 whole entry partner, species assumed) above
PI3K-γ, sequence (P48736 whole entry, species assumed): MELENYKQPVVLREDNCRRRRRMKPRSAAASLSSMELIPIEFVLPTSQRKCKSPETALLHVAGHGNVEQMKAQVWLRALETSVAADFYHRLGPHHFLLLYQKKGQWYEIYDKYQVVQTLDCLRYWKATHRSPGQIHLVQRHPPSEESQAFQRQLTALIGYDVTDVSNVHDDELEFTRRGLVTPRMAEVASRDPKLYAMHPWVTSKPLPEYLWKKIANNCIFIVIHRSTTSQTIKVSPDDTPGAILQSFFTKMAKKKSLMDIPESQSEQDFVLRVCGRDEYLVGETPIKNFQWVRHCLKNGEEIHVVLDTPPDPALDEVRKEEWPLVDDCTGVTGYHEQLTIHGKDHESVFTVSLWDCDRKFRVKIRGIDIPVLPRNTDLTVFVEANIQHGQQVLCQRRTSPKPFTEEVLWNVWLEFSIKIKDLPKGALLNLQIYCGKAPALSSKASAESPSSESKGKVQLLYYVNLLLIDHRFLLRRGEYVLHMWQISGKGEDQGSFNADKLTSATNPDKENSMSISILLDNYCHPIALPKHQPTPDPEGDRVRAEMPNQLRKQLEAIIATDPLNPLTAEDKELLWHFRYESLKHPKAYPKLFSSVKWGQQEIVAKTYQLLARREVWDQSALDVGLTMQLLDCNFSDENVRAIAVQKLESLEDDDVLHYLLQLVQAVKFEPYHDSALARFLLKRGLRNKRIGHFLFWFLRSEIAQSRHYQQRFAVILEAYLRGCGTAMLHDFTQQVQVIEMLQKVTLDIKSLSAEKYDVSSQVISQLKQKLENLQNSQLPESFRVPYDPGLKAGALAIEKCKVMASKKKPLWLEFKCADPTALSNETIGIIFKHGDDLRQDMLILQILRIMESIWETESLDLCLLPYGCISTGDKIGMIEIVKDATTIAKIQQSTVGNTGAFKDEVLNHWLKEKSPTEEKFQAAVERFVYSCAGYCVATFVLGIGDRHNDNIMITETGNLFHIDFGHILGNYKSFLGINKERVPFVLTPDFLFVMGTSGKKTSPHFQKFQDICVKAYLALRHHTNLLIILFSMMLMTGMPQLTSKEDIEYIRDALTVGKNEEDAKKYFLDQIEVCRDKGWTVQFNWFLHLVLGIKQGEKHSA

SMILES	IC50 (PI3K-δ) [nM]	IC50 (mTOR [1]) [nM]	IC50 (PI3K-γ) [nM]	IC50 (PI3K-β) [nM]	IC50 (PI3K-α) [nM]	also measured
COc1cccc(-c2nc(Oc3ccc(NC(C)=O)cc3)c3cnn(C)c3n2)c1 [Example 49, N-(4-{[6-(3-methoxyphenyl)-1-methyl-1H-pyrazolo[3,4-d]pyrimidin-4-yl]oxy}phenyl)acetamide]	134	> 20000	514	1040	258	–
COc1ccc(Oc2nc(-c3ccc(OC)c(OC)c3)nc3c2cnn3C)cc1OC [Example 46, 4-(3,4-dimethoxyphenoxy)-6-(3,4-dimethoxyphenyl)-1-methyl-1H-pyrazolo[3,4-d]pyrimidine]	94	> 20000	203	428	230	–
CC(=O)Nc1ccc(Oc2nc(-c3cccc(O)c3)nc3c2cnn3C)cc1 [Example 50, N-(4-{[6-(3-hydroxyphenyl)-1-methyl-1H-pyrazolo[3,4-d]pyrimidin-4-yl]oxy}phenyl)acetamide]	65	2100	114	213	113	–
Oc1cccc(-c2nc(N3CCOCC3)c3oc4ncccc4c3n2)c1 [PI103, 3-(4-(4-morpholinyl)pyrido[3′,2′:4,5]furo[3,2-d]pyrimidin-2-yl)phenol]	–	–	–	–	–	activity in human tumor xenograft models (human tumor xenografts; I.P. dosing in mice, U87MG, PC3, MDA-MB-468, MDA-MB-435, HCT 116, SKOV3, IGROV-1): demonstrated activity
CO[C@H]1C[C@@H]2CC[C@@H](C)[C@@](O)(O2)C(=O)C(=O)N2CCCC[C@H]2C(=O)O[C@H]([C@H](C)C[C@@H]2CC[C@@H](OC(=O)C(C)(CO)CO)[C@H](OC)C2)CC(=O)[C@H](C)/C=C(\C)[C@@H](O)[C@@H](OC)C(=O)[C@H](C)C[C@H](C)/C=C/C=C/C=C/1C [Torisel]	–	–	–	–	–	activity in NOS/SCID xenograft mouse model of acute lymphoblastic leukemia [2]: active
Cc1noc(C)c1-c1nc(Nc2ccc(C(N)=O)cc2)c2cnn(C)c2n1 [Example 63, 4-{[6-(3,5-dimethylisoxazol-4-yl)-1-methyl-1H-pyrazolo[3,4-d]pyrimidin-4-yl]amino}benzamide]	439	2800	416	2150	75	–
Cn1c(=O)n(-c2ccc(C(C)(C)C#N)cc2)c2c3cc(-c4cnc5ccccc5c4)ccc3ncc21 [NVP-BEZ-235, 2-methyl-2-(4-(3-methyl-2-oxo-8-(quinolin-3-yl)-2,3-dihydro-1H-imidazo[4,5-c]quinolin-1-yl)phenyl)propanenitrile]	–	–	–	–	–	activity in human tumor xenograft models (human tumor xenografts; prostrate (PC-3) and glioblastoma (U-87)): demonstrated activity
CC(=O)Nc1ccc(Oc2nc(-c3ccc4[nH]ccc4c3)nc3c2cnn3C)cc1 [Example 55, N-(4-{[6-(1H-indol-5-yl)-1-methyl-1H-pyrazolo[3,4-d]pyrimidin-4-yl]oxy}phenyl)acetamide]	–	570	600	–	387	–
Cn1ncc2c(Oc3ccc4[nH]ccc4c3)nc(-c3cccc(C#N)c3)nc21 [Example 43, 3-[4-(1H-indol-5-yloxy)-1-methyl-1H-pyrazolo[3,4-d]pyrimidin-6-yl]benzonitrile]	–	8400	1610	–	598	–
Cn1ncc2c(Nc3ccc(C(N)=O)cc3)nc(-c3cccc(Cl)c3)nc21 [Example 64, 4-{[6-(3-chlorophenyl)-1-methyl-1H-pyrazolo[3,4-d]pyrimidin-4-yl]amino}benzamide]	170	300	331	1620	40	–
FC(F)c1nc2ccccc2n1-c1nc(N2CCOCC2)nc(N2CCOCC2)n1 [ZSTK474, 2-(2-difluoromethylbenzoimidazol-1-yl)-4,6-dimorpholino-1,3,5-triazine]	–	–	–	–	–	tumor growth in mouse human xenograft cancer models (human tumor xenografts; chronic oral administration, 400 mg/kg, A549, PC-3, WiDr): completely inhibited growth; IC50 (mTOR [3]): > 10000 nM
CN1CCC(NC(=O)Nc2ccc(Nc3nc(Nc4ccc(C(N)=O)cc4)c4cnn(C)c4n3)cc2)CC1 [Example 91, 4-({1-Methyl-6-[(4-{[(1-methylpiperidin-4-yl)carbamoyl]amino}phenyl)amino]-1H-pyrazolo[3,4-d]pyrimidin-4-yl}amino)benzamide]	–	2000	3170	–	198	–
Cn1ncc2c(Oc3ccc(C(N)=O)cc3)nc(-c3ccccc3)nc21 [Example 75, 4-[(1-methyl-6-phenyl-1H-pyrazolo[3,4-d]pyrimidin-4-yl)oxy]benzamide]	–	9200	1720	–	1020	–
COc1ccc(Oc2nc(-c3ccccc3)nc3c2cnn3C)cc1OC [Example 73, 4-(3,4-dimethoxyphenoxy)-1-methyl-6-phenyl-1H-pyrazolo[3,4-d]pyrimidine]	–	8200	> 9600	–	1760	–
Cn1ncc2c(Nc3ccc(C(N)=O)cc3)nc(Nc3ccc(NC(=O)NC4CC4)cc3)nc21 [Example 88, 4-{[6-({4-[(Cyclopropylcarbamoyl)amino]phenyl}amino)-1-methyl-1H-pyrazolo[3,4-d]pyrimidin-4-yl]amino}benzamide]	–	44	263	–	27	–
